Measured values taken from PubChem BioAssay (NCI).
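Method: 48-hour compound exposure of cells in 96-well plates, five concentrations, linear interpolation of endpoints. TGI denotes the concentration required for complete inhibition of growth.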

How the values were obtained:
Experiment in all cases: NCI anticancer screen, dose series, 48 h
MCF7 breast = system: MCF7 breast
KM12 colon = system: KM12 colon
A549 NSCLC = system: A549 NSCLC
SK-OV-3 ovarian = system: SK-OV-3 ovarian
IGROV1 ovarian = system: IGROV1 ovarian
TK-10 renal = system: TK-10 renal
SNB-75 CNS = system: SNB-75 CNS
LOX IMVI melanoma = system: LOX IMVI melanoma
DU-145 prostate = system: DU-145 prostate
MDA-MB-435 = system: MDA-MB-435
HCC-2998 colon = system: HCC-2998 colon
HS 578T breast = system: HS 578T breast
SNB-19 CNS = system: SNB-19 CNS
NCI-H226 lung = system: NCI-H226 lung
COLO 205 colon = system: COLO 205 colon

Row | SMILES | TGI (MCF7 breast) [µM] | TGI (KM12 colon) [µM] | TGI (A549 NSCLC) [µM] | TGI (SK-OV-3 ovarian) [µM] | TGI (IGROV1 ovarian) [µM] | TGI (TK-10 renal) [µM] | TGI (SNB-75 CNS) [µM] | TGI (LOX IMVI melanoma) [µM] | TGI (DU-145 prostate) [µM] | TGI (MDA-MB-435) [µM] | TGI (HCC-2998 colon) [µM] | TGI (HS 578T breast) [µM] | TGI (SNB-19 CNS) [µM] | TGI (NCI-H226 lung) [µM] | TGI (COLO 205 colon) [µM]
1 | Nc1nc(Cl)c2ncn(Cc3ccccc3CCl)c2n1 | 24.3 | 39 | 53.1 | 52.1 | > 100 | 36.7 | 23.8 | 21.9 | 32.3 | 27 | 6.57 | 77.6 | 27.5 | 9.95 | > 100
2 | COc1cc(/C=C2\NC(=O)N(/C=C3\C(=O)Oc4ccccc4C3=O)C2=O)ccc1O | > 100 | > 100 | > 100 | > 100 | > 100 | > 100 | 77 | > 100 | > 100 | > 100 | > 100 | > 100 | > 100 | > 100 | > 100
3 | O=[N+]([O-])c1cc(Cl)ccc1S(=O)(=O)c1ccccc1 | > 100 | > 100 | > 100 | > 100 | > 100 | > 100 | > 100 | > 100 | > 100 | > 100 | > 100 | > 100 | > 100 | > 100 | > 100
4 | CN1N=C(c2ccncc2)OC1c1ccc(Cl)c(Cl)c1 (centres undefined) | > 100 | > 100 | > 100 | > 100 | > 100 | > 100 |  | > 100 | > 100 | > 100 | > 100 | > 100 | > 100 | > 100 | > 100
5 | CC[n+]1[b-](C(C)(C)C)n(/N=C(\C)C(C)(C)C)[b-](C(C)(C)C)[n+]1CC | > 100 | > 100 | > 100 |  | > 100 | > 100 | > 100 | > 100 |  | > 100 | > 100 | > 100 | > 100 | > 100 | 
6 | C=CCC1(O)c2cccc(O)c2C(=O)c2c(O)cccc21 | > 100 | > 100 | 88.4 |  | > 100 | > 100 | 75.2 | 57.2 | > 100 | > 100 | 43.7 | 63.1 |  | > 100 | 
7 | COC(=O)C(Cc1ccccc1)NS(=O)(=O)c1ccc(-c2c3nc(c(-c4ccc(S(=O)(=O)NC(Cc5ccccc5)C(=O)OC)cc4)c4ccc([nH]4)c(-c4ccc(S(=O)(=O)NC(Cc5ccccc5)C(=O)OC)cc4)c4nc(c(-c5ccc(S(=O)(=O)NC(Cc6ccccc6)C(=O)OC)cc5)c5ccc2[nH]5)C=C4)C=C3)cc1 (centres undefined) | > 100 | > 100 | > 100 | > 100 | > 100 | > 100 | 31.5 | > 100 | > 100 | > 100 | > 100 | 62 | > 100 |  | > 100
8 | Cc1ccc(S(=O)(=O)n2ccn3c(=O)cc(C)nc23)cc1 | > 10 | > 10 | > 10 | > 10 | > 10 | > 10 | > 10 | > 10 | > 10 | > 10 |  | > 10 | > 10 | > 10 | > 10
9 | CC(O[Si](C)(C)C(C)(C)C)[C@H](NC(=O)OCC(Cl)(Cl)Cl)C(=O)O (some centres undefined) | > 100 | > 100 | > 100 | > 100 | > 100 | > 100 |  |  | > 100 | > 100 | > 100 | > 100 | > 100 | > 100 | > 100
10 | COc1cc(Cn2c3c(c4cc(O)ccc42)C(=O)c2ccccc2C3=O)cc(OC)c1 | 50.6 | 54.8 | 49.6 | 6.68 | 13 | 34.9 |  | > 100 | 60.6 | > 100 | 37.3 | > 100 | 25.4 |  | 34.7
11 | CC(C)(C)OC(=O)C(C1NC(C(=O)O)C(C)(C)S1)N1C(=O)c2ccccc2C1=O (centres undefined) | > 100 | > 100 | > 100 | > 100 | > 100 | > 100 | > 100 | > 100 | > 100 | > 100 | > 100 | > 100 | > 100 |  | > 100
12 | COc1cc2c[n+](C)c3c4ccccc4ccc3c2cc1OC | > 100 | 2.65 | 23.2 | 32.5 |  | > 100 | 18.7 | 45 | 14 | 15.6 | 42.4 | 13 | 33.6 | 14.4 | 5.6
13 | Cn1cc(-c2ccc(CCOC3CCCCO3)cc2)c2c(C#N)cccc21 (centres undefined) | > 100 | > 100 | > 100 | > 100 | > 100 | > 100 |  | > 100 | > 100 | > 100 | > 100 | > 100 | > 100 |  | 67.5
14 | Nc1ncnc2c1ncn2CC(OCP(=O)(O)O)Oc1ccccc1 (centres undefined) | > 100 | > 100 | > 100 | > 100 |  | > 100 | > 100 | > 100 | > 100 | > 100 | > 100 | > 100 | > 100 | > 100 | > 100
15 | COc1ccc(OC)c(C2CCc3cnc4nc(N)nc(N)c4c3C2)c1 (centres undefined) | > 100 | > 100 | > 100 | > 100 | > 100 | > 100 | 50.1 | > 100 | > 100 | > 100 | > 100 | > 100 | > 100 |  | > 100
16 | Cc1c(-c2ccccc2)n(C)c2cn[nH]c(=O)c12 | > 100 | > 100 | > 100 | 61.2 | > 100 | > 100 |  | 38.3 | > 100 | > 100 | 85.8 | > 100 | > 100 |  | 32
